Our source for the IC50 and inhibition values is the COVID Moonshot data (paper PMC11187573), “Identification of SARS-CoV-2 Mpro inhibitors through deep reinforcement learning for de novo drug design and computational chemistry approaches” (RSC Medicinal Chemistry, 2024).

Usually IC50 stands for the concentration needed to halve the response being measured. Read a high IC50 as weaker potency in that assay. The inhibition is the percentage by which the read-out fell short of the control. High values mean a strong effect, low ones a weak effect.

One experiment has as its target SARS-CoV-2 Main Protease (SARS-CoV-2) (UniProt P0DTD1).
Details: not given
The compound `O=C(Cc1cccc(Cl)c1)Nc1[nH]nc2cc(F)ccc12` gave an IC50 of 91.5 µM. `CC(C)(C)c1ccc(N(C(=O)c2ccc(Cl)o2)C(C(=O)NCCc2cccc(F)c2)c2cccnc2)cc1` (stereo not given): the IC50 is 0.515 µM. Against the preceding compound, the IC50 is about 180-fold lower. Still for that read-out and setting: then `O=C(c1cc(=O)[nH]c2ccccc12)N1CCN(c2cccc(Cl)c2)CC1`, with 2.19 µM; and `O=C(Cn1nnc2ccccc21)N(Cc1ccsc1)c1ccc(N2CCCCC2)cc1`, with 6.29 µM.

Consider `Cc1ccncc1NC(=O)Cc1cc(Cl)cc(-c2ccc(C)c(F)c2F)c1`, for which the IC50 was found to be 56.2 µM. This IC50 lies about 8.9-fold higher than the previous one. Consider `COc1ccc2c(NC(=O)C3CCOc4ccc(Cl)cc43)noc2c1` (stereo not given), for which the IC50 turned out to be 53.4 µM. In turn, `O=C(Cc1cncc2ccccc12)N(CCC1CCCCC1)c1cccc(Cl)c1` registered an IC50 of 1.02 µM. Same read-out and setting: then `O=C(CCc1cccc(Cl)c1)Nc1cncc2ccccc12`, with 19.3 µM; and `O=C(Cc1cncc2ccccc12)Nc1cccc(Cl)c1`, with 7.2 µM; and `O=C(Nc1cncc2ccccc12)C1COc2c(Cl)cccc21` (stereo not given), with 5.36 µM. Regarding `CCC(=O)Nc1ccc(N(Cc2cscn2)C(=O)Cn2nnc3ccccc32)cc1`, the IC50 is 46.1 µM. Regarding `O=C(Cc1cccc(Cl)c1)Nc1cncc2c1CCC2`, the IC50 came to 4.65 µM. Compared with the last compound, the IC50 is about 9.9-fold lower. In turn, `CCCCN1C(=O)C(=O)c2cc(Br)cc(C)c21` returned a concentration for half-maximal inhibition (IC50) of 57.6 µM.

On to `COc1c(Cl)cccc1OCCNC(=O)c1cc(=O)[nH]c2ccccc12`, for which the half-inhibitory concentration (IC50) was found to be 16.5 µM. This IC50 is about 3.5-fold lower than that of the compound before. In the case of `Nc1nn(C(=O)C2CCOc3ccc(Cl)cc32)c2cc(F)ccc12` (stereo not given), the IC50 was 53.3 µM. As to `Cc1c(N)cncc1NC(=O)Cc1cccc(C#N)c1`, the IC50 was 32.2 µM. `Cc1ccncc1NC(=O)Cc1cc(Cl)cc(OCc2cc(-c3ccc(Cl)cc3)no2)c1`: the IC50 is 48.8 µM. On the same count and under the same terms, then `Cc1cc(C(F)(F)F)nc2n[nH]c(NC(=O)Cc3cccc(Cl)c3)c12`, with 82 µM. On the same count and under the same terms, in the case of `O=C(Cn1nnc2ccccc21)N(Cc1cccc(Cl)c1)c1ccc(N2CCOCC2)cc1` it was 3.79 µM. As for `Cc1noc(COc2cc(Cl)cc(CC(=O)Nc3cnccc3C)c2)n1`, the concentration for half-maximal inhibition (IC50) came to 24.3 µM. `Cc1c(C(=O)CCl)c2ccccn2c1C(=O)c1ccc(F)cc1` returned an IC50 of 0.706 µM.

Still in this experiment, the particulars now being: 20.0 µM.
In the case of `CC(=O)N1CCN(Cc2ccsc2)CC1`, the inhibition came to 98.5%.

Still in this experiment, the particulars now being: 50.0 µM.
For `CC(C)(C)c1ccc(N(C(=O)c2ccc(Cl)o2)C(C(=O)NCCc2cccc(F)c2)c2cccnc2)cc1` (stereo not given), the inhibition came out at 69.3%. On the same count and under the same terms, in the case of `O=C(c1cc(=O)[nH]c2ccccc12)N1CCN(c2cccc(Cl)c2)CC1` it was 65.7%; in that of `CC(=O)N1CCN(Cc2ccsc2)CC1`, 97.4%.

Consider `CC(C)(C)c1ccc(N(C(=O)c2ccco2)[C@H](C(=O)NCCc2cccc(F)c2)c2cccnc2)cc1`, for which the inhibition was found to be 100%.

Compound `C[N+]1=C2C=C(N/C=C/c3ccc(O)cc3)C(=O)c3[nH]cc(c32)CC1` registered an inhibition of 8.91%. On to `CC(C)(C)c1ccc(N(C(=O)c2ccco2)[C@@H](C(=O)NCCc2cccc(F)c2)c2cccnc2)cc1`, for which the inhibition was 100%. Compound `O=c1c(O)c(-c2cc(OCc3ccccc3)ccc2OCc2ccccc2)oc2ccccc12` registered an inhibition of 0.254%. Consider `C/C=C1\C(C2(C)CCCC(C)(C)C2)=CCC2C1[C@@H](OC(C)=O)O[C@H]2OC(C)=O` (stereo in doubt), for which the inhibition turned out to be 0%.

`C[C@H]1O[C@H](C)C2Oc3cc(O)c4c(=O)c5c6c7c8c(cc(=O)c9c(O)c1c2c(c3c47)c98)O[C@@H]6[C@@H](C)O[C@@H]5C` (stereo in doubt) gave an inhibition of 0%. As to `O=c1ccc2c3ccc(=O)c4c(O)ccc(c5ccc(O)c1c52)c43`, the inhibition amounted to 42.5%.

With `Cc1ccncc1NC(=O)Cc1cc(Cl)cc(OCc2cc(-c3ccc(Cl)cc3)no2)c1`, the inhibition is 41.8%.

`C[N+]1=C2C=C(NCCc3ccc(O)cc3)C(=O)c3[nH]cc(c32)CC1` yielded an inhibition of 2.74%. As to `Cc1cc(C(=O)CCl)c(C)n1NC(=O)c1n[nH]c(=O)c2ccccc12`, the inhibition was 42.3%. Regarding `Cc1oncc1C(=O)Nc1ccc(S(F)(F)(F)(F)F)cc1`, the inhibition came out at 0%. `CS(=O)(=O)Nc1cccc(C2=NN(C(=O)CCl)C(c3ccccc3)C2)c1` (stereo not given): the inhibition was found to be 57.6%.

`O=C(O)c1cn(-c2ccc(F)cc2)c2cc(N3CCNCC3)c(F)cc2c1=O`: the inhibition turned out to be 20%.

As to `CC(C)(O)CC1C2=C(Oc3c1c1c(c4ccccc34)OC(C)(C)C=C1)C(=O)c1ccccc1C2=O` (stereo not given), the inhibition was 3.92%. Still for that read-out and setting: in the case of `Cc1c(C(=O)CCl)c2ccccn2c1C(=O)c1ccc(F)cc1` it was 94.7%.
